Reference: the NIST ThermoML archive (doi:10.1021/je900050z)

Details: Liquid

CCC(C)(C)O [2-methylbutan-2-ol]
Details	vapor or sublimation pressure [kPa]
303.29 K	2.81
303.47 K	2.85
304.67 K	3.16
305.75 K	3.4
305.9 K	3.43
308.35 K	4.08
309.12 K	4.31
309.86 K	4.55
310.61 K	4.8
311.64 K	5.15
312.47 K	5.43
313.38 K	5.77
314.17 K	6.08
315.44 K	6.59
317.09 K	7.31
318.64 K	7.99
319.37 K	8.36
319.86 K	8.61
320.32 K	8.84
321.32 K	9.36
322.44 K	9.99
323.15 K	10.41
323.27 K	10.49
324.11 K	11.03
324.91 K	11.51
325.71 K	12.03
326.45 K	12.55
327.18 K	13.05
327.62 K	13.36
328.41 K	13.97
329.33 K	14.65
330.15 K	15.31
330.98 K	15.97
331.8 K	16.67
332.46 K	17.29
333.15 K	17.87
333.26 K	17.99
333.99 K	18.65
334.69 K	19.32
335.45 K	20.03
336.05 K	20.67
336.68 K	21.31
337.31 K	21.96
337.97 K	22.63
338.69 K	23.47
339.15 K	23.97
339.68 K	24.67
340.31 K	25.35
340.83 K	26
341.39 K	26.67
341.9 K	27.33
342.4 K	27.97
342.92 K	28.67
343.15 K	28.95
343.42 K	29.31
343.94 K	30.01
344.47 K	30.67
344.91 K	31.35
345.39 K	32.07
345.78 K	32.67
346.35 K	33.48
347.18 K	34.67
347.57 K	35.32
348.07 K	36.07
348.49 K	36.71
348.88 K	37.36
349.27 K	38.01
349.64 K	38.64
350.08 K	39.32
350.49 K	39.96
350.83 K	40.64
351.2 K	41.31
351.67 K	42.08
351.95 K	42.65
352.3 K	43.35
352.73 K	44
353.02 K	44.65
353.15 K	44.87
353.44 K	45.35
353.73 K	45.97
354.1 K	46.63
354.41 K	47.28
354.72 K	47.95
355.11 K	48.65
355.43 K	49.31
355.74 K	49.95
356.09 K	50.75
356.45 K	51.36
356.69 K	52
356.99 K	52.61
357.35 K	53.32
357.67 K	54.03
357.96 K	54.67
358.25 K	55.35
358.47 K	55.95
358.85 K	56.63
359.15 K	57.33
359.48 K	58
359.68 K	58.59
360.01 K	59.27
360.21 K	59.95
360.53 K	60.59
360.83 K	61.27
361.11 K	61.99
361.4 K	62.61
361.72 K	63.35
362.01 K	64.04
362.24 K	64.67
362.54 K	65.35
362.84 K	66
363.07 K	66.71
363.56 K	67.92
364.15 K	69.21
364.62 K	70.64
365.21 K	71.99
365.73 K	73.37
366.16 K	74.75
366.67 K	76.05
367.11 K	77.28
367.53 K	78.63
368.02 K	79.97
368.44 K	81.28
368.83 K	82.53
369.31 K	83.93
369.73 K	85.28
370.15 K	86.63
370.56 K	87.97
370.99 K	89.39
371.39 K	90.76
371.77 K	91.99
372.16 K	93.31
372.56 K	94.67
372.95 K	95.99
373.34 K	97.39
373.73 K	98.71

CCCCCCO [hexan-1-ol]
Details	vapor or sublimation pressure [kPa]
343.46 K	2.04
344.2 K	2.16
344.6 K	2.23
345.36 K	2.35
346.17 K	2.47
347.27 K	2.67
348.1 K	2.79
348.35 K	2.85
349.38 K	3.04
349.75 K	3.11
350.75 K	3.32
351.39 K	3.44
352.2 K	3.64
352.63 K	3.73
353 K	3.83
353.31 K	3.89
353.82 K	3.96
355.2 K	4.31
357.01 K	4.79
358.22 K	5.15
359.43 K	5.51
360.34 K	5.79
361.12 K	6.04
361.86 K	6.29
363.85 K	6.99
364.61 K	7.27
365.58 K	7.64
366.3 K	7.92
367.44 K	8.4
368.05 K	8.67
368.99 K	9.08
369.67 K	9.4
370.24 K	9.67
370.83 K	9.95
371.45 K	10.27
372.1 K	10.59
373 K	11.05
373.67 K	11.43
374.19 K	11.73
375.14 K	12.27
375.93 K	12.73
376.59 K	13.15
377.22 K	13.53
377.83 K	13.71
378.01 K	13.85
378.37 K	14.15
378.72 K	14.4
379.1 K	14.65
379.46 K	14.91
379.75 K	15.12
380.06 K	15.37
380.41 K	15.61
380.87 K	15.95
381.15 K	16.15
381.45 K	16.37
381.89 K	16.71
382.25 K	16.97
382.56 K	17.21
382.85 K	17.44
383.18 K	17.69
383.34 K	17.84
383.67 K	18.09
384.08 K	18.43
384.87 K	19.05
385.37 K	19.47
385.86 K	19.91
386.31 K	20.31
386.83 K	20.79
387.23 K	21.15
387.62 K	21.48
388.1 K	21.91
388.59 K	22.37
389.05 K	22.79
389.48 K	23.2
389.89 K	23.6
390.23 K	23.95
390.65 K	24.36
390.93 K	24.67
391.4 K	25.13
391.75 K	25.51
392.06 K	25.83
392.51 K	26.31
392.77 K	26.59
393.14 K	27
